Data published in paper PMC3763640, “Effect of Co-Administration of Rivaroxaban and Clopidogrel on Bleeding Time, Pharmacodynamics and Pharmacokinetics: A Phase I Study” (Pharmaceuticals, 2012).

Columns and labels:
healthy male subjects [1] = experiment: Bleeding time test (Surgicutt incision, forearm); type: in vivo, human; settings: rivaroxaban 15 mg single dose, clopidogrel 300 mg day 1 + 75 mg day 2, combination with rivaroxaban on day 2; for least squares-mean relative change in bleeding time compared with baseline: 4 h after last drug administration
Procedure: Bleeding time tests were performed in accordance with the protocol reported by the International Committee on Standardization of the Bleeding Time. Bleeding time measurements depend on the method and on who carries out the procedure; therefore, results vary greatly between studies. To reduce variability, one study nurse was specifically trained in the procedure of the test before this study. The same study nurse carried out all measurements at all time points for each subject. […] A sphygmomanometer on the upper arm was inflated to 40 mmHg for 30 seconds before the incision was made and maintained at 40 mmHg until the end of the procedure. The bleeding time incision was made by placing a Surgicutt Adult® (ITC, Edison, NJ, USA) device (used in accordance with the recommendations of the manufacturer, as specified in the package insert) gently against the forearm, perpendicular (vertical) to the elbow crease. […] The bleeding time was measured in seconds as the total duration of blood flow from the wound. […] Statistical evaluations were performed with the use of the SAS® software package version 8.2 at the Department of Global Pharmacometrics (Bayer HealthCare AG, Wuppertal, Germany). […] Student's paired t tests were used to compare treatments for these parameters, and 90% confidence intervals (CIs) for the difference were calculated.

Factor Xa = target: T1, Factor Xa (Homo sapiens, UniProt P00742); experiment: Factor Xa activity in plasma after dosing; type: in vivo; settings: for median value of Factor Xa activity: 4 h after administration, rivaroxaban 15 mg
T1 construct: Blood samples were centrifuged to obtain plasma samples, which were then frozen and stored below −15 °C until analysis; from tissue; host or cells: plasma from blood samples of the healthy male study subjects
Procedure: (§1) The effects of rivaroxaban and clopidogrel on Factor Xa activity, prothrombin time (PT), activated partial thromboplastin time (aPTT) and HepTest were assessed, as described previously. Factor Xa activities above 0.1 IU/mL (the lower limit of quantification) were determined with a precision of 3.8–6.6% and an accuracy of 96–114%. […] When only clopidogrel was administered (treatment A), blood samples were taken after 4, 8, 24 and 48 h. Blood samples were centrifuged to obtain plasma samples, which were then frozen and stored below −15 °C until analysis.

[2] = Prothrombin time (PT) in plasma after dosing; type: in vivo, human
Procedure: as §1

[3] = Activated partial thromboplastin time (aPTT) in plasma after dosing; type: in vivo, human; settings: combination compared with rivaroxaban alone
Procedure: as §1

[4] = HepTest in plasma after dosing; type: in vivo, human; settings: combination compared with rivaroxaban alone
Procedure: as §1

platelet aggregation = experiment: ADP-stimulated platelet aggregation (Born method); type: in vivo, human; settings: for platelet aggregation, median relative change from baseline: 4 h after drug administration
Procedure: A clopidogrel response screening period preceded the study (Figure 1). […] The initial dose of 300 mg clopidogrel was chosen for this study because this loading dose is generally used in patients with ACS [24]. A second dose of 75 mg clopidogrel was selected because this is the standard daily dose recommended by guidelines for use in patients with a variety of relevant conditions, including atrial fibrillation, stroke and ACS [24]. […] This method is based on the turbidimetric determination of cell suspensions. […] Measurement was performed at 650 nm. The individual response of changes of platelet aggregation to baseline was determined using 29 µM ADP in addition to an optimized individual activating regimen using ADP. […] Statistical evaluations were performed with the use of the SAS® software package version 8.2 at the Department of Global Pharmacometrics (Bayer HealthCare AG, Wuppertal, Germany). […] Student’s paired t tests were used to compare treatments for these parameters, and 90% confidence intervals (CIs) for the difference were calculated.

[5] = tested on: GPIIb/IIIa, P-selectin and annexin V; experiment: Platelet activation markers by flow cytometry; type: in vivo, human; settings: 4 h after drug administration, relative to baseline
Procedure: To assure uniformity of assays and to minimize sample manipulation, blood samples were mixed gently and processed without delay. Platelet-rich plasma was prepared by slow centrifugation, and platelets were labelled with monoclonal antibodies against GPIIb/IIIa (CD41a), […] (CD62p) and annexin V protein. Samples were analysed using a COULTER® EPICS® XLTM flow cytometer (Beckman Coulter, Inc.; Brea, CA, USA). The average immunofluorescence of the total population or the fraction of activated events was determined and compared with individual control samples before treatment.

healthy male subjects [6] = experiment: Safety and tolerability; type: in vivo, human; settings: single dose of 15 mg rivaroxaban
Procedure: Safety and tolerability were assessed subjectively and objectively. Subjective assessment was obtained by asking the subjects non-leading questions about the occurrence of any adverse events or by spontaneous reporting of adverse events. Adverse events were classified according to their degree of severity. Objective tolerability was evaluated by monitoring cardiovascular parameters including heart rate, blood pressure and ECG parameters. In addition, blood tests, clinical chemistry, urine test and drug screening were part of the objective assessment.

[7] = individually optimized concentration of ADP
[8] = 12 h after administration of 15 mg rivaroxaban

T1 sequence (P00742 235-488 limits assumed): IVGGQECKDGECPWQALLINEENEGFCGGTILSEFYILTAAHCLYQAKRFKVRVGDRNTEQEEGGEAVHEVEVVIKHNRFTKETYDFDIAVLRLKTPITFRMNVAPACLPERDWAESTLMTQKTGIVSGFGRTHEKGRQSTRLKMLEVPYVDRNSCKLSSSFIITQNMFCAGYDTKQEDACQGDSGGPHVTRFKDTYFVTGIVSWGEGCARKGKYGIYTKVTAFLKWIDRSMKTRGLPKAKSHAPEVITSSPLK
T1 sequence (P00742 41-179 partner limits assumed): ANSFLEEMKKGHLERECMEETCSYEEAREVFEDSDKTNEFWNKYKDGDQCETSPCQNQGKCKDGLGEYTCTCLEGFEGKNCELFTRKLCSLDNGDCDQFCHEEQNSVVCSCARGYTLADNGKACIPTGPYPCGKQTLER

Row | effect on Factor Xa activity (Factor Xa; combination compared with rivaroxaban alone) | SMILES | least squares-mean relative change in bleeding time compared with baseline (healthy male subjects [1]) | median value of Factor Xa activity (Factor Xa) | effect on PT ([2]; compared with baseline, combination compared with rivaroxaban monotherapy) | effect on aPTT [3] | effect on HepTest [4] | platelet aggregation, median relative change from baseline (platelet aggregation; 29 µM ADP) | platelet aggregation, median relative change from baseline (platelet aggregation; [7]) | number of subjects identified as clopidogrel responders (more than 40% inhibition of platelet aggregation compared with baseline) (platelet aggregation; of 27 healthy male subjects, single dose of 300 mg clopidogrel, 24 h after administration) | effect on platelet activation markers [5] | bleeding time, overall least squares-means (healthy male subjects [1]; clopidogrel responders) | Factor Xa inhibition, return to values within % of baseline (Factor Xa; [8]) | PT, return to values within % of baseline [2, 8] | effect on platelet aggregation (platelet aggregation; optimized ADP or fixed 29 µM ADP) | safety and tolerability (healthy male subjects [6])
1 | no effect | COC(=O)[C@H](c1ccccc1Cl)N1CCc2sccc2C1 [clopidogrel] | 2.0 fold | 0.9 U/mL | did not change | did not affect | did not affect | 0.340 | 0.249 | 14 | pronounced decrease |  |  |  |  | 
2 |  | O=C(NC[C@H]1CN(c2ccc(N3CCOCC3=O)cc2)C(=O)O1)c1ccc(Cl)s1 [rivaroxaban] | 1.1 fold | 0.57 U/mL |  |  |  | 1.1 | 0.9 |  | no relevant effect | 1.13 times baseline | ≤ 10% | ≤ 10% | not affected | safe and well tolerated
